In patent publication EP0360937B1, “Improved process for recovering microbially produced interferonbeta” (CETUS ONCOLOGY CORPORATION, priority 1988, dated 1990):
Values belong to the molecule of their own block, whether it stands above or below them.

Assays:
IFN-beta [1] = target: T1, IFN-beta (Homo sapiens, UniProt P01574, C38S); test: Keeping IFN-beta soluble as guanidine HCl is removed by dialysis; supernatant and pellet analysed by SDS-PAGE and silver stain; format: physicochemical; set-up: key to Successful (+)/ Unsuccessful (-): Successful (+); Unsuccessful (-); details: for Successful (+)/ Unsuccessful (-): dialysis against sodium phosphate buffer pH 5.0; for keeping IFN-beta in solution: 15% PEG300, 25% glycerol, 50% sucrose, 20% isopropanol
T1 construct: made in house; host or cells: E. coli K12/MM294-1 carrying plasmid pSY2501 (ATCC 39,517)
T1 sequence (P01574 23-187 C38S limits assumed): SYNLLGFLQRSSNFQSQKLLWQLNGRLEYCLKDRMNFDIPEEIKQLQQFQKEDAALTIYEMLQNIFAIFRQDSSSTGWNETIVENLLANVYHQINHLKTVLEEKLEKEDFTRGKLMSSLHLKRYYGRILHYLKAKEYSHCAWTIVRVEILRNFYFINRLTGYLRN
Method: At this point, a stabilizing additive was added to the oxidized IFN-beta material while guanidine HCl is still present, and the solution was dialyzed to remove the guanidine. The solubilized, oxidized material was divided into aliquots and a different stabilizing agent or a non-ionic detergent was added to each aliquot. A summary of the stabilizing agents and non-ionic detergents used in this example, as well as the concentration used, is provided in Table 1.
Each aliquot was dialyzed against 20-50 mM sodium phosphate buffer, pH 5.0 containing the appropriate stabilizer or detergent. […] Dialysis was run at pH 5.0 because rIFN-beta is more soluble at low pH than at neutral or higher pH. As the guanidine HCl was dialyzed from the sample, a precipitate formed. The aliquots were centrifuged at 5,000 x g for 15 min and both the supernatant and the pellet, resuspended in 1% SDS, were saved. The supernatant and resuspended pellet were analyzed by SDS-PAGE (PHAST system by Pharmacia) and silver stain to locate the rIFN-beta.

IFN-beta [2] = target: T1, IFN-beta; test: Absorbance at 280 nm in supernatant after dialysis against glycerol, with varied concentration and pH; format: physicochemical; details: for % A₂₈₀ in Supernatant: 25 mM NaPi

keeping IFN-beta in solution (IFN-beta [1]): keep IFN-beta in solution
Successful (+)/ Unsuccessful (-) (IFN-beta [1]; reagent at 50%): +
Molecule: CC(C)O [Isopropanol]

Successful (+)/ Unsuccessful (-) (IFN-beta [1]; reagent at 20%): -
Molecule: CC(O)CO (centres unmarked) [Propylene Glycol]

keeping IFN-beta in solution (IFN-beta [1]): keep IFN-beta in solution
Molecule: OC[C@H]1O[C@@](CO)(O[C@H]2O[C@H](CO)[C@@H](O)[C@H](O)[C@H]2O)[C@@H](O)[C@@H]1O [Sucrose]

More lines, now with the values behind:

Molecule: CCC(O)CO (centres unmarked) [1,2-butanediol]
Successful (+)/ Unsuccessful (-) (IFN-beta [1]; reagent at 20%): -

Molecule: OCC(O)COc1ccccc1 (centres unmarked) [3-phenoxy-1,2-propanediol]
Successful (+)/ Unsuccessful (-) (IFN-beta [1]; reagent at 5%): -

Molecule: OCCO [Ethylene Glycol]
Successful (+)/ Unsuccessful (-) (IFN-beta [1]; reagent at 20%): -

Molecule: OCC(O)CO [Glycerol]
keeping IFN-beta in solution (IFN-beta [1]): keep IFN-beta in solution
% A₂₈₀ in Supernatant (IFN-beta [2]; 25%, pH 4): 31%
% A₂₈₀ in Supernatant (IFN-beta [2]; 25%, pH 5): 13%
% A₂₈₀ in Supernatant (IFN-beta [2]; 50%, pH 4): 86%
% A₂₈₀ in Supernatant (IFN-beta [2]; 50%, pH 5): 50%
IFN-beta solubility on adjusting concentration and pH (IFN-beta [2]; concentration increased to 50% and pH lowered to 4): greater IFN-beta solubility

Molecule: Tween® 80
keeping IFN-beta in solution, detergent combined with glycerol (IFN-beta [1]; 0.01% detergent with 25% glycerol at pH 4, A280 and SDS-PAGE): keep most of the IFN-beta in solution
